Read-outs that look alike come from different tables or passages of the source.
Legend:
Water solubility = assay type: physicochemical
[1] = Long wavelength molar extinction coefficient; assay type: physicochemical; conditions: in methanol, at 660 nm
Method: Lysyl-chlorin-p6 was prepared by treatment of purpurin 18 methyl ester (obtained from chlorophyll-a) with lysine in a mixture of dichloromethane, pyridine, and water. It was purified using a Waters Associate's C18 SepPak cartridge. Reversed phase analytical high-performance liquid chromatography (HPLC) indicated the product to consist of 60% lysyl chlorin-p6 and 40% chlorin-p6 based on equal absorbance at 403 nm. This mixture is termed "LCP". The long wavelength molar extinction coefficient of lysyl-chlorin-p6 in methanol was 39,600 at 660 nm.

Stability of compounds = assay type: physicochemical; conditions: decomposes to purpurin-18 methyl ester (3) and polar baseline material
tumor = conditions: cited from earlier work
normal skin = conditions: comparable drug and light doses; cited from earlier work
cell killing = conditions: cited from earlier work; for activity in photodynamic therapy: in vitro conditions; for photosensitized cell killing: low intensity of red light

## C=Cc1c(C)c2cc3nc(c(C(=O)O)c4[nH]c(cc5nc(cc1[nH]2)C(C)=C5CC)c(C)c4C(=O)NCCCCC(N)C(=O)O)[C@@H](CCC(=O)OC)[C@@H]3C (stereo partly shown) [(II), chlorin-p6 6-N^ε -lysylamide-7-methyl ester]
Water solubility
  solubility in water: well soluble in water
[1]
  long wavelength molar extinction coefficient: 39,600

## C=Cc1c(C)c2cc3nc(c(C(=O)O)c4[nH]c(cc5nc(cc1[nH]2)C(C)=C5CC)c(C)c4C(=O)NCCCC)[C@@H](CCC(=O)OC)[C@@H]3C [(VII), chlorin-p6-6-N-butylamide-7-methyl ester]
Stability of compounds
  stability: not very stable and readily decomposed

## C=Cc1c(C)c2cc3nc(c(CC(=O)N[C@@H](CC(=O)[O-])C(=O)[O-])c4[nH]c(cc5nc(cc1[nH]2)C(C)=C5CC)c(C)c4C(=O)[O-])[C@@H](CCC(=O)[O-])[C@@H]3C.[Na+].[Na+].[Na+].[Na+] [MACE, mono-L-aspartyl-chlorin e6]
tumor; 24 hours between drug administration and light
  tumor cures: ineffective at inducing tumor cures
tumor; administered 4-6 hours prior to light exposure
  tumor cures: PDT induced tumor cures were obtained
Normal skin
  level of PDT induced normal skin damage vs HpD: significantly lesser

## C=Cc1c(C)c2cc3nc(c4c5[nH]c(cc6nc(cc1[nH]2)C(C)=C6CC)c(C)c5C(=O)OC4=O)[C@@H](CCC(=O)O)[C@@H]3C [Purpurin-18]
Cell killing
  activity in photodynamic therapy: active in photodynamic therapy
  photosensitized cell killing: potent photosensitizers which promote cell killing

## C=Cc1c(C)c2cc3nc(c(C(=O)O)c4[nH]c(cc5nc(cc1[nH]2)C(C)=C5CC)c(C)c4C(=O)O)[C@@H](CCC(=O)O)[C@@H]3C [chlorin-p6]
Cell killing
  activity in photodynamic therapy: active in photodynamic therapy
  photosensitized cell killing: potent photosensitizers which promote cell killing

— patent publication US5330741A, “Long-wavelength water soluble chlorin photosensitizers useful for photodynamic therapy and diagnosis of tumors” (The Regents of the University of California, priority 1992, dated 1994)
